This is an account of results in patent US20230263822A1, “MODULATION OF FACTOR 11 EXPRESSION” (Ionis Pharmaceuticals, Inc., priority 2008, published 2023).

Strand notation (5' to 3'): a small letter for the sugar, then the base; units joined by * are phosphorothioate-linked, units joined directly phosphodiester-linked; [ ] holds rarer units or linkages, { } end groups; capitals alone tell only the bases. e = 2'-O-(2-methoxyethyl) (MOE); [5mC] = 5-methylcytosine; d = 2'-deoxy (DNA)

Data set [1] in a line: Tolerability in Sprague-Dawley rats: kidney function (Example 42). To be noted: 50 mg/kg s.c. twice per week for 6 weeks; for BUN / Creatinine: plasma.
The nature of data set [2]: Tolerability in Sprague-Dawley rats: hematology assays (Example 42). To be noted: 50 mg/kg s.c. twice per week for 6 weeks, blood.
Data set [3] in a line: Tolerability in Sprague-Dawley rats: hematology assays (Example 44). To be noted: 50 mg/kg s.c. twice per week for 6 weeks, blood. The format is in vivo.
Data set [4] can be described thus: Tolerability in Sprague-Dawley rats: liver function (Example 44). To be noted: 50 mg/kg s.c. twice per week for 6 weeks, plasma. More on the design: Albumin: unit not given here. The format is in vivo.
The nature of data set [5]: Tolerability in CD1 mice: kidney function (Example 43). The format is in vivo. To be noted: 50 mg/kg s.c. twice per week for 6 weeks, plasma.

Regarding “ISIS 445522: 5-8-5 or 6-8-6 MOE microwalk gapmer (Table 44) (antisense eG*e[5mC]*eA*e[5mC]*eA*dG*dT*dT*dT*d[5mC]*dT*dG*dG*e[5mC]*eA*eG*eG*e[5mC])”, in data set [1], the BUN was determined as 25 mg/dL, the Creatinine was found to be 0.4 mg/dL and the Urine protein/creatinine ratio is on record as 6.4. In data set [2], this substance registered an HCT of 47%, a Lymphocyte of 84%, a Neutrophil of 13% and a Platelets of 1334 nL⁻¹. In data set [2], the RBC came to 7.7 pL⁻¹, the WBC was 18 nL⁻¹, the hemoglobin was 13.6 g/dL and the monocytes is recorded as 2.8%.
As for “ISIS 445531: 5-8-5 or 6-8-6 MOE microwalk gapmer (Table 44) (antisense eG*eG*e[5mC]*eA*eT*dT*dG*dG*dT*dG*d[5mC]*dA*d[5mC]*eA*eG*eT*eT*eT)”, in data set [1], the BUN came out at 23 mg/dL, the Creatinine turned out to be 0.4 mg/dL and the Urine protein/creatinine ratio turned out to be 3.4. Further, in data set [2], the HCT amounted to 50%, the Lymphocyte turned out to be 86%, the Neutrophil came out at 10% and the Platelets came to 1023 nL⁻¹. In data set [2], this substance gave an RBC of 8.8 pL⁻¹, a WBC of 13 nL⁻¹, a hemoglobin of 14.8 g/dL and a monocytes of 2.8%.
In data set [3], “ISIS 449710: 3-8-3, 4-8-4, 2-10-2, 3-10-3 or 4-10-4 MOE microwalk gapmer (Table 46) (antisense e[5mC]*eA*e[5mC]*dA*dG*dT*dT*dT*d[5mC]*dT*dG*dG*d[5mC]*eA*eG*eG)” displayed a Platelets of 509 nL⁻¹, an RBC of 6.3 pL⁻¹, a WBC of 13 nL⁻¹ and a hematocrit of 41%. In data set [3], this substance gave a hemoglobin of 12.5 g/dL, a lymphocytes of 91%, a monocytes of 2% and a neutrophils of 6%. In data set [4], this substance had an ALT of 36 IU/L, an AST of 211 IU/L, an Albumin of 2.9 and a Bilirubin of 0.1 mg/dL. In data set [5], the BUN was found to be 29 mg/dL and the Creatinine is recorded as 0.2 mg/dL.
“ISIS 449711: 3-8-3, 4-8-4, 2-10-2, 3-10-3 or 4-10-4 MOE microwalk gapmer (Table 46) (antisense eA*e[5mC]*dA*dG*dT*dT*dT*d[5mC]*dT*dG*dG*d[5mC]*eA*eG)”: in data set [3], the Platelets turned out to be 919 nL⁻¹, the RBC turned out to be 6.4 pL⁻¹, the WBC amounted to 13 nL⁻¹ and the hematocrit is 43%. In data set [3], the hemoglobin is reported as 12.6 g/dL, the lymphocytes is listed as 90%, the monocytes was found to be 2% and the neutrophils was determined as 7%. In data set [4], this substance displayed an ALT of 32 IU/L, an AST of 163 IU/L, an Albumin of 2.9 and a Bilirubin of 0.1 mg/dL. In data set [5], this substance gave a BUN of 26 mg/dL and a Creatinine of 0.2 mg/dL.
